Our source for the residual activity values is the kinase profiling compilation of Christmann-Franck et al. (2016).

The term residual activity denotes the signal under treatment as a percentage of the control signal.

Sequence of CDK4 CCND1 (human) (P11802 whole entry, looked up): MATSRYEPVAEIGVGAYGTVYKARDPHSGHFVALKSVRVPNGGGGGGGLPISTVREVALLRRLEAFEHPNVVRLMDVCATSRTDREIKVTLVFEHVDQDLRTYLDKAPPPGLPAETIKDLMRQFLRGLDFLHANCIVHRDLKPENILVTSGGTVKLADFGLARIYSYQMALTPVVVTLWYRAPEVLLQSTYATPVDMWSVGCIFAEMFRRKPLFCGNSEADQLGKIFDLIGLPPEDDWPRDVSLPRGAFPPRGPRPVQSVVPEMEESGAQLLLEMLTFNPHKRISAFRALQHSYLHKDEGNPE
Sequence of CDK4 CCND1 (human) (P24385 whole entry, looked up): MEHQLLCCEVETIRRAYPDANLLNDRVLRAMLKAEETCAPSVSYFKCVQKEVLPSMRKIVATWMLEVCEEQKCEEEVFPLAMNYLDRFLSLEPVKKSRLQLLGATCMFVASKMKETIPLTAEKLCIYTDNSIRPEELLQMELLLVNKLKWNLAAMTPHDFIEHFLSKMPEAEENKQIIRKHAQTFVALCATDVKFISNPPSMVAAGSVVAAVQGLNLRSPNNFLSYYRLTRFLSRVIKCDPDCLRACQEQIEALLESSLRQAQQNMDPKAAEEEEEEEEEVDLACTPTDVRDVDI
Sequence of STK17A (human) (Q9UEE5 whole entry, looked up): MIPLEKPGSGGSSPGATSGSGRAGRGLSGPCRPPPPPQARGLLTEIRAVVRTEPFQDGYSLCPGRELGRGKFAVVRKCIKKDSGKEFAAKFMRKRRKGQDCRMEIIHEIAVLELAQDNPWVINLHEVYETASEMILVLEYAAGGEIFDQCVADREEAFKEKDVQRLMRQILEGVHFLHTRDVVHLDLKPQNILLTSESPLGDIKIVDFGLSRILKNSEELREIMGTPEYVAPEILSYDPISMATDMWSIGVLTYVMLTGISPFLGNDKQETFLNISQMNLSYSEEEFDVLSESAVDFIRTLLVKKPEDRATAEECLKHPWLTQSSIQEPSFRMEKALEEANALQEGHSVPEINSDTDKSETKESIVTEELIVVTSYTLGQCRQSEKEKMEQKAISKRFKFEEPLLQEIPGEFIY

The target of the first assay is CDK5 CDK5R1 p25 (human) (UniProt Q00535+Q15078). The assay is described as follows: radiometric filter-binding kinase assay, Kinase HotSpot. Particulars: compound 0.5 µM; ATP 10 µM.
Sequence of CDK5 CDK5R1 p25 (human) (Q00535 whole entry, looked up): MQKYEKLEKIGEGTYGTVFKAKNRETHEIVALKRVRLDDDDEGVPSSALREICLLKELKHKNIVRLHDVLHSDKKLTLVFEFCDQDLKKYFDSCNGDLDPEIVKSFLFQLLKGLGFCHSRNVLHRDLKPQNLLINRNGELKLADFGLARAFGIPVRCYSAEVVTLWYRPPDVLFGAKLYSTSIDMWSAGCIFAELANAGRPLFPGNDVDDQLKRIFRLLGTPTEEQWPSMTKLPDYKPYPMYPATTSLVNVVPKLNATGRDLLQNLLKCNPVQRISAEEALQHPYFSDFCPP
Sequence of CDK5 CDK5R1 p25 (human) (Q15078 whole entry, looked up): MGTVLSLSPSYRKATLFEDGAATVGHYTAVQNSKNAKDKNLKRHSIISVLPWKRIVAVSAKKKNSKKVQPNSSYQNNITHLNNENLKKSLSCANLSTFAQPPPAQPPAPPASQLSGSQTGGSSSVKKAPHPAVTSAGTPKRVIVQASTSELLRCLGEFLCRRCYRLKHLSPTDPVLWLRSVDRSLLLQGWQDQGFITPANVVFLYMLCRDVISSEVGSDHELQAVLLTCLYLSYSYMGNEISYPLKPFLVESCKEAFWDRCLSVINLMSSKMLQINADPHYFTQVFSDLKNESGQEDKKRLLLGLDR
With `O=C(O)/C=C/c1cc(Br)c(Br)c(Br)c1Br`, the residual activity worked out at 84.1%.
The same measure, in the same setting: next, `Cn1cnc2cc3c(Nc4cccc(Br)c4)ncnc3cc21`: 88%.
Consider `O=C1Nc2ccccc2/C1=C1\Nc2ccccc2\C1=N/O`, for which the residual activity came to 28.7%.

For a further assay, the target named is ZAP70 (human) (UniProt P43403). The assay is described as above. The settings on record: compound 0.5 µM; ATP 10 µM.
For `O=C(O)/C=C/c1cc(Br)c(Br)c(Br)c1Br`, the residual activity turned out to be 98.5%.
Turning to `Cn1cnc2cc3c(Nc4cccc(Br)c4)ncnc3cc21`, the residual activity amounted to 110%.
Still for that read-out and setting: next, `O=C1Nc2ccccc2/C1=C1\Nc2ccccc2\C1=N/O`: 95.6%.

The target of another assay is CHUK (human) (UniProt O15111). The description is as above. The settings on record: compound 0.5 µM; ATP 10 µM.
Sequence of CHUK (human) (O15111 whole entry, looked up): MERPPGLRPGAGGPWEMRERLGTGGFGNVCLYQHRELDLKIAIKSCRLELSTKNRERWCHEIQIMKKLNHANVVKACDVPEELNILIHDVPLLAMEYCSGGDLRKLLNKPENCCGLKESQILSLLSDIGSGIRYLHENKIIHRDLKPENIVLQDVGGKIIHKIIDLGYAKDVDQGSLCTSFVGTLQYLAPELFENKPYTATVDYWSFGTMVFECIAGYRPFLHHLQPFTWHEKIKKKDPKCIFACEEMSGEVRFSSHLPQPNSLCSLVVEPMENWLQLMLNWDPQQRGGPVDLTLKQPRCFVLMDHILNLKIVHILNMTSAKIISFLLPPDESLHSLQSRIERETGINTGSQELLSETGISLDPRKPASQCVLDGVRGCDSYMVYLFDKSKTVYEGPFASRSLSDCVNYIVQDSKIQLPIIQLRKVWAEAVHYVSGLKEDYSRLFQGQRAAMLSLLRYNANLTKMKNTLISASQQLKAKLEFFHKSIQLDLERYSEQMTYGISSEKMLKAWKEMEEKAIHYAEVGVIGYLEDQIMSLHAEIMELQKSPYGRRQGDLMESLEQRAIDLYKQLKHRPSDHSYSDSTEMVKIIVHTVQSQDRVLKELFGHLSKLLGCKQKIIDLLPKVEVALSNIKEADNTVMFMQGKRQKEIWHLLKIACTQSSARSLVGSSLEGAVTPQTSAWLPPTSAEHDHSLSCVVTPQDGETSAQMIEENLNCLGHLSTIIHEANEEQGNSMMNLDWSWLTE
For the compound `O=C(O)/C=C/c1cc(Br)c(Br)c(Br)c1Br`, the residual activity came to 89.5%.
For the compound `Cn1cnc2cc3c(Nc4cccc(Br)c4)ncnc3cc21`, the residual activity came out at 89.7%.
For the compound `O=C1Nc2ccccc2/C1=C1\Nc2ccccc2\C1=N/O`, the residual activity was found to be 97.6%.

The next assay concerns the target DCLK2 (human) (UniProt Q8N568). Described as above. The settings on record: compound 0.5 µM; ATP 10 µM.
In the case of `O=C(O)/C=C/c1cc(Br)c(Br)c(Br)c1Br`, the residual activity was determined as 94.8%.
Still for that read-out and setting: in the case of `Cn1cnc2cc3c(Nc4cccc(Br)c4)ncnc3cc21` it was 92.9%; in that of `O=C1Nc2ccccc2/C1=C1\Nc2ccccc2\C1=N/O`, 88.5%.

In another assay the target is CDK9 CCNK (human) (UniProt O75909+P50750). Described as above. The settings on record: compound 0.5 µM; ATP 10 µM.
On to `O=C(O)/C=C/c1cc(Br)c(Br)c(Br)c1Br`, for which the residual activity is 65.3%.
`Cn1cnc2cc3c(Nc4cccc(Br)c4)ncnc3cc21`: the residual activity was 100%.
With `O=C1Nc2ccccc2/C1=C1\Nc2ccccc2\C1=N/O`, the residual activity stood at 59.7%.

For the next assay, the target named is PTK2 (human) (UniProt Q05397). The assay is described as above. Particulars: compound 0.5 µM; ATP 10 µM.
With `O=C(O)/C=C/c1cc(Br)c(Br)c(Br)c1Br`, the residual activity came out at 94%.
Regarding `Cn1cnc2cc3c(Nc4cccc(Br)c4)ncnc3cc21`, the residual activity came to 108%.
For the compound `O=C1Nc2ccccc2/C1=C1\Nc2ccccc2\C1=N/O`, the residual activity worked out at 65.8%.

A further assay has as its target PTK2B (human) (UniProt Q14289). The assay is described as above. The settings on record: compound 0.5 µM; ATP 10 µM.
In the case of `O=C(O)/C=C/c1cc(Br)c(Br)c(Br)c1Br`, the residual activity was found to be 93.3%.
With `Cn1cnc2cc3c(Nc4cccc(Br)c4)ncnc3cc21`, the residual activity is 92.7%.
Turning to `O=C1Nc2ccccc2/C1=C1\Nc2ccccc2\C1=N/O`, the residual activity was determined as 65.8%.

For the next assay, the target named is INSR (human) (UniProt P06213). The description is as above. Particulars: compound 0.5 µM; ATP 10 µM.
Sequence of INSR (human) (P06213 whole entry, looked up): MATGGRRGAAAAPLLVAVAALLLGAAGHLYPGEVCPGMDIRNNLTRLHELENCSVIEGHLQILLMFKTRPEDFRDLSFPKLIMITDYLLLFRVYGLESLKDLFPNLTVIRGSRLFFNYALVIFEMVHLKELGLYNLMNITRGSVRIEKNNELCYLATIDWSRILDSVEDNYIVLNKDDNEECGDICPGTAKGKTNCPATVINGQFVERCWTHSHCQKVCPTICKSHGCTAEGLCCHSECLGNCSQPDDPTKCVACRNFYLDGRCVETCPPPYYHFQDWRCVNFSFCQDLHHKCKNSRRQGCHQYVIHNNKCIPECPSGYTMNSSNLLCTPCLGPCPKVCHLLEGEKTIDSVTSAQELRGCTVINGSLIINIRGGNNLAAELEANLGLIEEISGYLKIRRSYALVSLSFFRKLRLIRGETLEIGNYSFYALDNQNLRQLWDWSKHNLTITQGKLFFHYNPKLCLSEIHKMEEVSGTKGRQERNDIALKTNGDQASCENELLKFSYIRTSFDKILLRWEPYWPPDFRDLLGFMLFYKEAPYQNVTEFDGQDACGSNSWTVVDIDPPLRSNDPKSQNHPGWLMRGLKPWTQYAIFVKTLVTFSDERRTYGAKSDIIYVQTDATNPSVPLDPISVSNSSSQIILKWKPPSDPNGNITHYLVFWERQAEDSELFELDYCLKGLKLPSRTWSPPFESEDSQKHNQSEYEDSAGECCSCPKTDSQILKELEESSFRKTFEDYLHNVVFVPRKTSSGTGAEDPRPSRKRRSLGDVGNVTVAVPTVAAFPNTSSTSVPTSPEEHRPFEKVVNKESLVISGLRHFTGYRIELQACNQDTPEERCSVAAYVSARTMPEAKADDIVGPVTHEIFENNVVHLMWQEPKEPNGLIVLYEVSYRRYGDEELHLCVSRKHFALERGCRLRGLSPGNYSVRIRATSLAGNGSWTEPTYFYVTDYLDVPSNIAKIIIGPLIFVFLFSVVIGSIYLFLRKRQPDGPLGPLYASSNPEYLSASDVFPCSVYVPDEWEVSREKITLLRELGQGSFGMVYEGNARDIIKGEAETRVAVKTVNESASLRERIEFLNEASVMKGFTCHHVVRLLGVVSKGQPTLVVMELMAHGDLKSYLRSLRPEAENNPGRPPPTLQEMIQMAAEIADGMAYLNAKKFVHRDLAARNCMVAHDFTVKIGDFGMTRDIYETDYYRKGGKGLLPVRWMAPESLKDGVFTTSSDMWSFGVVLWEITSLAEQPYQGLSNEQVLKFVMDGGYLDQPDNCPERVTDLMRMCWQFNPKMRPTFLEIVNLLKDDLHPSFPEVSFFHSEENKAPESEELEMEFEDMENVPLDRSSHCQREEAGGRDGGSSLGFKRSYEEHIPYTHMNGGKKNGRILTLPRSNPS
On to `O=C(O)/C=C/c1cc(Br)c(Br)c(Br)c1Br`, for which the residual activity is 98.6%.
Regarding `Cn1cnc2cc3c(Nc4cccc(Br)c4)ncnc3cc21`, the residual activity came out at 94.4%.
As for `O=C1Nc2ccccc2/C1=C1\Nc2ccccc2\C1=N/O`, the residual activity was determined as 66.8%.

For another assay, the target named is CAMK2B (human) (UniProt Q13554). The description is as above. The settings on record: compound 0.5 µM; ATP 10 µM.
As to `O=C(O)/C=C/c1cc(Br)c(Br)c(Br)c1Br`, the residual activity was 56.1%.
Take `Cn1cnc2cc3c(Nc4cccc(Br)c4)ncnc3cc21`: the residual activity was found to be 102%.
`O=C1Nc2ccccc2/C1=C1\Nc2ccccc2\C1=N/O`: the residual activity came out at 87.5%.

In the next assay the target is CAMK2D (human) (UniProt Q13557). The description is as above. Particulars: compound 0.5 µM; ATP 10 µM.
Sequence of CAMK2D (human) (Q13557 whole entry, looked up): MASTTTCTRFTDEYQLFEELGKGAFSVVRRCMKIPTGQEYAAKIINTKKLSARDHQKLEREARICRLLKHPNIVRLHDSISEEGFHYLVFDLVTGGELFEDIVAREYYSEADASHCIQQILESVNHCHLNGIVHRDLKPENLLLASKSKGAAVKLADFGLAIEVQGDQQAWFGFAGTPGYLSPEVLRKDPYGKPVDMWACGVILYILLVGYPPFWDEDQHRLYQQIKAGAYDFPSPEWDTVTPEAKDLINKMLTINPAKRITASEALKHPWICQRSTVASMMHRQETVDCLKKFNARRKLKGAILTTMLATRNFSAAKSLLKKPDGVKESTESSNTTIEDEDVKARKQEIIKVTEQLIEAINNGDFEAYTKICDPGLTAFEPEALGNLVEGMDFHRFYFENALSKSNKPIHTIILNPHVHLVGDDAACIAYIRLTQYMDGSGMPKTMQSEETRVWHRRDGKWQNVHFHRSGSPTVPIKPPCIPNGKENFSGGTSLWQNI
With `O=C(O)/C=C/c1cc(Br)c(Br)c(Br)c1Br`, the residual activity came to 77.7%.
Regarding `Cn1cnc2cc3c(Nc4cccc(Br)c4)ncnc3cc21`, the residual activity was 92.2%.
On the same count and under the same terms, next, `O=C1Nc2ccccc2/C1=C1\Nc2ccccc2\C1=N/O`: 60.4%.

The next assay addresses CAMK2A (human) (UniProt Q9UQM7). The assay is described as above. The settings on record: compound 0.5 µM; ATP 10 µM.
Consider `O=C(O)/C=C/c1cc(Br)c(Br)c(Br)c1Br`, for which the residual activity was determined as 64.4%.
Consider `Cn1cnc2cc3c(Nc4cccc(Br)c4)ncnc3cc21`, for which the residual activity was 102%.
Take `O=C1Nc2ccccc2/C1=C1\Nc2ccccc2\C1=N/O`: the residual activity was 50.2%.

A further assay addresses HIPK2 (human) (UniProt Q9H2X6). The description is as above. Particulars: compound 0.5 µM; ATP 10 µM.
Regarding `O=C(O)/C=C/c1cc(Br)c(Br)c(Br)c1Br`, the residual activity is 82.2%.
Same read-out and setting: in the case of `Cn1cnc2cc3c(Nc4cccc(Br)c4)ncnc3cc21` it was 106%.
With `O=C1Nc2ccccc2/C1=C1\Nc2ccccc2\C1=N/O`, the residual activity was 104%.

The next assay deals with STK16 (human) (UniProt O75716). Described as above. The settings on record: compound 0.5 µM; ATP 10 µM.
Turning to `O=C(O)/C=C/c1cc(Br)c(Br)c(Br)c1Br`, the residual activity turned out to be 90.4%.
Turning to `Cn1cnc2cc3c(Nc4cccc(Br)c4)ncnc3cc21`, the residual activity came out at 96.3%.
With `O=C1Nc2ccccc2/C1=C1\Nc2ccccc2\C1=N/O`, the residual activity is 54.8%.

For a further assay, the target named is PRKCE (human) (UniProt Q02156). The assay is described as above. Particulars: compound 0.5 µM; ATP 10 µM.
Sequence of PRKCE (human) (Q02156 whole entry, looked up): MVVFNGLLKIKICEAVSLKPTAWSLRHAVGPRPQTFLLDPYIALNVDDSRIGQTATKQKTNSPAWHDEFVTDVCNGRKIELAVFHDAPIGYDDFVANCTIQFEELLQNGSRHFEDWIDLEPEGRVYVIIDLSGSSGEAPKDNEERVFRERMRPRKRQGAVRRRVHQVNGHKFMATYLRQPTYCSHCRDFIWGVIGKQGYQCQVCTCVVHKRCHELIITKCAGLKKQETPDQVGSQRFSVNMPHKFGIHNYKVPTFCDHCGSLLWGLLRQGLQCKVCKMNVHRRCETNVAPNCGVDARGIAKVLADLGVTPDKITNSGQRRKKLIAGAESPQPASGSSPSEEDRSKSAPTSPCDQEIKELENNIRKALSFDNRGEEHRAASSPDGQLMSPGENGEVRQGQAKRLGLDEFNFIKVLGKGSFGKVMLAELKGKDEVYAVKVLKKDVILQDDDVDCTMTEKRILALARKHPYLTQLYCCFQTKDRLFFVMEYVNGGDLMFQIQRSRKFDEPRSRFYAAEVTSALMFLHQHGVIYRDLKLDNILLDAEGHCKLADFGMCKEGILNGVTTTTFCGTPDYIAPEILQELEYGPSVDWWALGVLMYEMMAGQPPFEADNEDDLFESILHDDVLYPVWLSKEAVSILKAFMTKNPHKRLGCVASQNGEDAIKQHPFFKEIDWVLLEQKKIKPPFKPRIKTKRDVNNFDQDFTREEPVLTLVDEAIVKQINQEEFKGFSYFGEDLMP
Regarding `O=C(O)/C=C/c1cc(Br)c(Br)c(Br)c1Br`, the residual activity was determined as 88.6%.
Take `Cn1cnc2cc3c(Nc4cccc(Br)c4)ncnc3cc21`: the residual activity came out at 87.8%.
Same read-out and setting: in the case of `O=C1Nc2ccccc2/C1=C1\Nc2ccccc2\C1=N/O` it was 96.5%.

The next assay deals with CDK5 CDK5R1 p35 (human) (UniProt Q00535+Q15078). The assay is described as above. The settings on record: compound 0.5 µM; ATP 10 µM.
On to `O=C(O)/C=C/c1cc(Br)c(Br)c(Br)c1Br`, for which the residual activity was 92.4%.
In the case of `Cn1cnc2cc3c(Nc4cccc(Br)c4)ncnc3cc21`, the residual activity was determined as 84.6%.
Take `O=C1Nc2ccccc2/C1=C1\Nc2ccccc2\C1=N/O`: the residual activity is 23.8%.

The target of another assay is ULK1 (human) (UniProt O75385). The description is as above. Particulars: compound 0.5 µM; ATP 10 µM.
Turning to `O=C(O)/C=C/c1cc(Br)c(Br)c(Br)c1Br`, the residual activity is 108%.
In the case of `Cn1cnc2cc3c(Nc4cccc(Br)c4)ncnc3cc21`, the residual activity amounted to 113%.
For the compound `O=C1Nc2ccccc2/C1=C1\Nc2ccccc2\C1=N/O`, the residual activity was found to be 78.9%.

Another assay addresses STK17A (human) (UniProt Q9UEE5). Described as above. Particulars: compound 0.5 µM; ATP 10 µM.
Take `O=C(O)/C=C/c1cc(Br)c(Br)c(Br)c1Br`: the residual activity came to 84.6%.
Still for that read-out and setting: in the case of `Cn1cnc2cc3c(Nc4cccc(Br)c4)ncnc3cc21` it was 82.5%.
As for `O=C1Nc2ccccc2/C1=C1\Nc2ccccc2\C1=N/O`, the residual activity came out at 46%.

A further assay deals with FYN (human) (UniProt P06241). The assay is described as above. The settings on record: compound 0.5 µM; ATP 10 µM.
As to `O=C(O)/C=C/c1cc(Br)c(Br)c(Br)c1Br`, the residual activity came out at 97.9%.
Turning to `Cn1cnc2cc3c(Nc4cccc(Br)c4)ncnc3cc21`, the residual activity was 85.9%.
On to `O=C1Nc2ccccc2/C1=C1\Nc2ccccc2\C1=N/O`, for which the residual activity amounted to 43.3%.

Another assay addresses PRKCB1 (human) (UniProt P05771). The assay is described as above. Particulars: compound 0.5 µM; ATP 10 µM.
Consider `O=C(O)/C=C/c1cc(Br)c(Br)c(Br)c1Br`, for which the residual activity is 95.5%.
As to `Cn1cnc2cc3c(Nc4cccc(Br)c4)ncnc3cc21`, the residual activity was 100%.
For the compound `O=C1Nc2ccccc2/C1=C1\Nc2ccccc2\C1=N/O`, the residual activity was found to be 94.7%.

The target of a further assay is EPHB3 (human) (UniProt P54753). The assay is described as above. The settings on record: compound 0.5 µM; ATP 10 µM.
With `O=C(O)/C=C/c1cc(Br)c(Br)c(Br)c1Br`, the residual activity stood at 89.8%.
Turning to `Cn1cnc2cc3c(Nc4cccc(Br)c4)ncnc3cc21`, the residual activity was found to be 93.8%.
Same read-out and setting: in the case of `O=C1Nc2ccccc2/C1=C1\Nc2ccccc2\C1=N/O` it was 92.3%.

A further assay has as its target CDK4 CCND1 (human) (UniProt P24385+P11802). The description is as above. The settings on record: compound 0.5 µM; ATP 10 µM.
Take `O=C(O)/C=C/c1cc(Br)c(Br)c(Br)c1Br`: the residual activity stood at 89.3%.
For the compound `Cn1cnc2cc3c(Nc4cccc(Br)c4)ncnc3cc21`, the residual activity is 84%.
Consider `O=C1Nc2ccccc2/C1=C1\Nc2ccccc2\C1=N/O`, for which the residual activity came out at 70.9%.
